Experimental data published in patent EP4467141A1, “PYRAZOLO-QUINOLINES AS SELECTIVE INHIBITORS OF GENOTOXIC STRESS-INDUCED IKK/NF- KB PATHWAYS FOR CANCER THERAPY” (Max-Delbrück-Centrum für Molekulare Medizin in der …, priority 2023, dated 2024).

Key:
Assay in all cases: Kinase panel study
Assay type in all cases: biochemical
Conditions in all cases: read-out: Percentage of inhibition; for inhibition at 1 µM: 1000nM; for inhibition at 10 µM: 10000nM
[1] = molecular target: T1, CSNK2A1 (CK2 alpha 1) (Homo sapiens, UniProt P68400)
T1 construct: purchased Thermo Fisher Scientific
How it was run: (§1)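 Inhibition was measured in an outsourced in vitro kinase panel using the ZLyte or Adapta format under the provider's standard procedures. Values are percent inhibition at 10 µM or 1 µM compound, and IC50s were also obtained.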

[2] = molecular target: T2, EGFR (ErbB1) G719S (Homo sapiens, UniProt P00533, G719S)
T2 construct: purchased Thermo Fisher Scientific
How it was run: as §1

[3] = molecular target: T3, FGFR1 (Homo sapiens, UniProt P11362)
T3 construct: purchased Thermo Fisher Scientific
How it was run: as §1

[4] = molecular target: T4, HIPK4 (Homo sapiens, UniProt Q8NE63)
T4 construct: purchased Thermo Fisher Scientific
T4 sequence (Q8NE63 1-616): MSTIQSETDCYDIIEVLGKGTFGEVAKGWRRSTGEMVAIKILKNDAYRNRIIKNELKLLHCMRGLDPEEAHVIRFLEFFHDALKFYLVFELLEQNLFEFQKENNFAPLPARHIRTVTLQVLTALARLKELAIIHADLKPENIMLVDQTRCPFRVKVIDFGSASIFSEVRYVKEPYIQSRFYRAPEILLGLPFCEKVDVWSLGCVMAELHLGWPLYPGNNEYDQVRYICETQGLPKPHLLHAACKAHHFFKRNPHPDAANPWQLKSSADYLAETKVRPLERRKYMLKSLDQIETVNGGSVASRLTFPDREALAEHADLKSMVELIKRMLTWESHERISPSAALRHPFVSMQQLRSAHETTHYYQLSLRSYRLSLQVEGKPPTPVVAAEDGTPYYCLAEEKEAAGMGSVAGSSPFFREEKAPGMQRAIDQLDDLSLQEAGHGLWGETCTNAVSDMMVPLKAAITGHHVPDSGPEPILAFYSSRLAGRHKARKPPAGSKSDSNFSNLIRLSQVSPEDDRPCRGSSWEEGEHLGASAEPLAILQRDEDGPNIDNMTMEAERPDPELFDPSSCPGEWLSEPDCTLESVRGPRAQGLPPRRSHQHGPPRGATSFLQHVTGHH
How it was run: as §1

[5] = molecular target: T5, INSR (Homo sapiens, UniProt P06213)
T5 construct: purchased Thermo Fisher Scientific
How it was run: as §1

[6] = molecular target: T6, KIT V559D V654A (Homo sapiens, UniProt P10721, V559D/V654A)
T6 construct: purchased Thermo Fisher Scientific
How it was run: as §1

[7] = molecular target: T7, MAPK13 (p38 delta) (Homo sapiens, UniProt O15264)
T7 construct: purchased Thermo Fisher Scientific
T7 sequence (O15264 1-365): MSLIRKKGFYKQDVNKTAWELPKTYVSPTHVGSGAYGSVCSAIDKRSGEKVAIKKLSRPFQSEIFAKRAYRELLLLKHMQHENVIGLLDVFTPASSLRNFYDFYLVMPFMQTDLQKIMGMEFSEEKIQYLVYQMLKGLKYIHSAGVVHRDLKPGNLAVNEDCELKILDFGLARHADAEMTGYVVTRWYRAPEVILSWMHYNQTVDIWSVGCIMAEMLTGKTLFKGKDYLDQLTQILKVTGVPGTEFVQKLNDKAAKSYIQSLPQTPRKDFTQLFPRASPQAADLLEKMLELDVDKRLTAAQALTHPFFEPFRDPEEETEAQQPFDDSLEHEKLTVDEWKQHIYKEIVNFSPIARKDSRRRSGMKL
How it was run: as §1

[8] = molecular target: T8, MARK2 (Homo sapiens, UniProt Q7KZI7)
T8 construct: purchased Thermo Fisher Scientific
How it was run: as §1

[9] = molecular target: T9, MARK3 (Homo sapiens, UniProt P27448)
T9 construct: purchased Thermo Fisher Scientific
How it was run: as §1

[10] = molecular target: T10, PAK3 (Homo sapiens, UniProt O75914)
T10 construct: purchased Thermo Fisher Scientific
How it was run: as §1

[11] = molecular target: T11, PIM2 (Homo sapiens, UniProt Q9P1W9)
T11 construct: purchased Thermo Fisher Scientific
How it was run: as §1

[12] = molecular target: T12, PRKCH (PKC eta) (Homo sapiens, UniProt P24723)
T12 construct: purchased Thermo Fisher Scientific
How it was run: as §1

[13] = molecular target: T13, RPS6KA1 (RSK1) (Homo sapiens, UniProt Q15418)
T13 construct: purchased Thermo Fisher Scientific
How it was run: as §1

[14] = molecular target: T14, RPS6KB1 (p70S6K) (Homo sapiens, UniProt P23443)
T14 construct: purchased Thermo Fisher Scientific
How it was run: as §1

[15] = molecular target: T15, SNF1LK2 (Homo sapiens, UniProt Q9H0K1)
T15 construct: purchased Thermo Fisher Scientific
How it was run: as §1

T12 sequence (P24723 whole entry): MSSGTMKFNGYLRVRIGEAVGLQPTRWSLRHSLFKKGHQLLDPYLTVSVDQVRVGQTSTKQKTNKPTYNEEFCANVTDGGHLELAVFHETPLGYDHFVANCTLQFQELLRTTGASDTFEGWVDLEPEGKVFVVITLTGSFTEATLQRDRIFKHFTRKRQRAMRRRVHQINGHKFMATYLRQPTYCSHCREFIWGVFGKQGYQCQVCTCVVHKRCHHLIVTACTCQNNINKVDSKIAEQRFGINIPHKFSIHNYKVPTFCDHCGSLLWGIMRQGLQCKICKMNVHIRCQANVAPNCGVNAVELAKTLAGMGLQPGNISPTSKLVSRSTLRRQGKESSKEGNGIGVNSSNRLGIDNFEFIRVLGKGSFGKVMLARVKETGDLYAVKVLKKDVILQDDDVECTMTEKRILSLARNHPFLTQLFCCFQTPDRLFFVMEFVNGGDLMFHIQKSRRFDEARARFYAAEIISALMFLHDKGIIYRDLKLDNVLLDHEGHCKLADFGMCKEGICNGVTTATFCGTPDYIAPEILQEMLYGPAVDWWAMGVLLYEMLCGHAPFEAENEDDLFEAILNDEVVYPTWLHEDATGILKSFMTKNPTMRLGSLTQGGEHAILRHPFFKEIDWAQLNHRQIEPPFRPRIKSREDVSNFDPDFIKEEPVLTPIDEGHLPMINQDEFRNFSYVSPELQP
T8 sequence (Q7KZI7 whole entry): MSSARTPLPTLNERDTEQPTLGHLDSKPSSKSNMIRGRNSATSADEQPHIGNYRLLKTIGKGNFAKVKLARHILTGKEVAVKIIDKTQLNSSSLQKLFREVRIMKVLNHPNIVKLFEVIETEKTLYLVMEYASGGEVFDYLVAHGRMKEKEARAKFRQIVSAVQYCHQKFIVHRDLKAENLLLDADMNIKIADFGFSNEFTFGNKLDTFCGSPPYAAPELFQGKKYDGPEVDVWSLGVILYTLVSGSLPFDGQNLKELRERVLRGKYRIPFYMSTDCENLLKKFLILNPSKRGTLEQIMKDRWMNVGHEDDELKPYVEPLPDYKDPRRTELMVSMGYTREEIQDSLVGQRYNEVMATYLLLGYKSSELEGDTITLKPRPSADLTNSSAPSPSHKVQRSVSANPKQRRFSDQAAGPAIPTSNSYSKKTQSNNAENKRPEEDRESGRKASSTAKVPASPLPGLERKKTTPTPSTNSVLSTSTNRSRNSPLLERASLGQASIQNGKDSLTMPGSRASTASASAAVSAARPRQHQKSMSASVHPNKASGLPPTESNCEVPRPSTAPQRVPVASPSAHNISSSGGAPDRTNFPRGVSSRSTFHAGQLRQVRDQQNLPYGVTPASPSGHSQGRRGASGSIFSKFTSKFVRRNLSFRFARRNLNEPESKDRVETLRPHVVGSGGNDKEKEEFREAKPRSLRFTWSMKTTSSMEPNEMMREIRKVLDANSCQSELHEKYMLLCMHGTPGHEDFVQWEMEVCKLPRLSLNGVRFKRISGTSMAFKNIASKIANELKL
T2 sequence (P00533 25-1210 G719S): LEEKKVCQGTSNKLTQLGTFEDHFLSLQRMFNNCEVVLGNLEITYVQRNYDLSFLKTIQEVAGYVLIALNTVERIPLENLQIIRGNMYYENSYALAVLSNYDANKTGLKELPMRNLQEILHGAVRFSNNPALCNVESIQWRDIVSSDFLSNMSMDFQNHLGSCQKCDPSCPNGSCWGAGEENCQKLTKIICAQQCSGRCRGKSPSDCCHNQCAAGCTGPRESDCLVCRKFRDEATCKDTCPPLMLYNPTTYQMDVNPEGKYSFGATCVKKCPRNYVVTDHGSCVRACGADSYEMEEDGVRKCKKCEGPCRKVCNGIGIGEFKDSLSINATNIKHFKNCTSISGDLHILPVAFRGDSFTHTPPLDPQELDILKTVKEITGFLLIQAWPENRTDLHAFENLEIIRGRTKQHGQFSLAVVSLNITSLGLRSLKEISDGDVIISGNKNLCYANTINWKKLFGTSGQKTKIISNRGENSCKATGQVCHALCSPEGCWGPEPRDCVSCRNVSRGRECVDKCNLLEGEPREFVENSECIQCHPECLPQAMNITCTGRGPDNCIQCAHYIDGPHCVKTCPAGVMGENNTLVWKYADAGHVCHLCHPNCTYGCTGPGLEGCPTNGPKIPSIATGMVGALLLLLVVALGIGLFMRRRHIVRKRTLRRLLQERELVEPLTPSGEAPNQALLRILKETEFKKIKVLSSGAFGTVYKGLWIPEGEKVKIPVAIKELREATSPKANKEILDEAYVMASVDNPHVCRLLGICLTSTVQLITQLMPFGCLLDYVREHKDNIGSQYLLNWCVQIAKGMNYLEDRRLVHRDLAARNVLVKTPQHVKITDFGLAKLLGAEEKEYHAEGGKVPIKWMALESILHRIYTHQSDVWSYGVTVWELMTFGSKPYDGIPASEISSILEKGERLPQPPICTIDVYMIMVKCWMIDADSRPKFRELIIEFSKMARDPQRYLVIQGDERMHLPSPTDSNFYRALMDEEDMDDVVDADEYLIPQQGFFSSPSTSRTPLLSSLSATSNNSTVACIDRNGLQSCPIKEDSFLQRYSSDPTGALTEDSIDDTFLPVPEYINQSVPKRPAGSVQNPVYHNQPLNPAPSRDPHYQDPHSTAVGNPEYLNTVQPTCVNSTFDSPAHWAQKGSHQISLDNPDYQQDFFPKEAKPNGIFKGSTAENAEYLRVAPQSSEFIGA
T5 sequence (P06213 28-1382): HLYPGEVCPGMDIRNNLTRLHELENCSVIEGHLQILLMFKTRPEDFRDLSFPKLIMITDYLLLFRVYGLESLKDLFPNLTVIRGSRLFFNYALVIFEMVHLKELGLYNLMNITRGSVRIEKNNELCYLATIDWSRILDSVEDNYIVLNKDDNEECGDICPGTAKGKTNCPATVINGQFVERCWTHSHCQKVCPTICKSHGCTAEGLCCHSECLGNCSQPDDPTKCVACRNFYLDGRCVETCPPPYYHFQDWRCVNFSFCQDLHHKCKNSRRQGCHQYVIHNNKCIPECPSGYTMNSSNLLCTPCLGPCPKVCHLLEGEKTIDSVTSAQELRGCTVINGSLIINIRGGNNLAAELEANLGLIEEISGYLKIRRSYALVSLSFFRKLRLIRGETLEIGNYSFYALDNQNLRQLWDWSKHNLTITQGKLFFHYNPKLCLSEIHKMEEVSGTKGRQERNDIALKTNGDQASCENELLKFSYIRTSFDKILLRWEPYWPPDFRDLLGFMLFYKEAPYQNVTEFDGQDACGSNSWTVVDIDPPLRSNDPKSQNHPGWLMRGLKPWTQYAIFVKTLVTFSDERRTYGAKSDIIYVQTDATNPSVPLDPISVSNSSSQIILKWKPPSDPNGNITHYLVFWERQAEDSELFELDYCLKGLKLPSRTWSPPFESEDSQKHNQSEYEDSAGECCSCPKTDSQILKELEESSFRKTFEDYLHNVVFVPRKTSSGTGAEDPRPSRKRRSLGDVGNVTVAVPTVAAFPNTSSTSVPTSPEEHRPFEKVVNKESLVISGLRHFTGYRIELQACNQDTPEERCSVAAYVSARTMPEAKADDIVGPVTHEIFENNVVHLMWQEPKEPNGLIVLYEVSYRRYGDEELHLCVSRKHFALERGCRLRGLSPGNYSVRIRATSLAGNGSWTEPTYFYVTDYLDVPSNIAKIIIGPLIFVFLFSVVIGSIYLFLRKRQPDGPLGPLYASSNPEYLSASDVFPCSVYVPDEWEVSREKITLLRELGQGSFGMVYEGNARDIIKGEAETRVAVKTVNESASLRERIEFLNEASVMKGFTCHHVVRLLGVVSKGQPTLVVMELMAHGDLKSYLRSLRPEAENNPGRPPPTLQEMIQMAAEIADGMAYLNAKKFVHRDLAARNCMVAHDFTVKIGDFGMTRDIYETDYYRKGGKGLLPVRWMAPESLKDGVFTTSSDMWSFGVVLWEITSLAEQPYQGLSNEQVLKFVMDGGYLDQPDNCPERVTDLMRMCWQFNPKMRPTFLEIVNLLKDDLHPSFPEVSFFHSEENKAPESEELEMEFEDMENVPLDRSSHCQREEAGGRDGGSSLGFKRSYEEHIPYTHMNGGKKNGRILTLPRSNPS
T13 sequence (Q15418 whole entry): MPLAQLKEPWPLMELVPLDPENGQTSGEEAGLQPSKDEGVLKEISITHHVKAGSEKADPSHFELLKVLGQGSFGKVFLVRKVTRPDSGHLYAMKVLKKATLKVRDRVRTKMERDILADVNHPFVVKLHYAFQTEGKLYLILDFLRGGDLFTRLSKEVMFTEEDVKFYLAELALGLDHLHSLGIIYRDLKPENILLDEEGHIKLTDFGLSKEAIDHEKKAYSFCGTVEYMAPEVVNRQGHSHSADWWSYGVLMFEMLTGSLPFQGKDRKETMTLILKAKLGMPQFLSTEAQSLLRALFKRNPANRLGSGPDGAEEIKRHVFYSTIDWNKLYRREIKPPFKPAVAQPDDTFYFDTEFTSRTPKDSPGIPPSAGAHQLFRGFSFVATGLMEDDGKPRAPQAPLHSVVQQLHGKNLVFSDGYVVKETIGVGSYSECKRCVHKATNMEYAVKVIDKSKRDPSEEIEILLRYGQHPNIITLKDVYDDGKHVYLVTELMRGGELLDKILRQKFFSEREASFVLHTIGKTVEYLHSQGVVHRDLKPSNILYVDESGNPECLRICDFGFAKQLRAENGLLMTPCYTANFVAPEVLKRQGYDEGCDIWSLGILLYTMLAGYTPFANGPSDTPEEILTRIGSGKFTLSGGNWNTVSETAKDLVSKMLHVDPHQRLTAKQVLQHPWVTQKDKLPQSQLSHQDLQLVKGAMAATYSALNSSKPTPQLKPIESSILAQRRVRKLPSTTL
T11 sequence (Q9P1W9 whole entry): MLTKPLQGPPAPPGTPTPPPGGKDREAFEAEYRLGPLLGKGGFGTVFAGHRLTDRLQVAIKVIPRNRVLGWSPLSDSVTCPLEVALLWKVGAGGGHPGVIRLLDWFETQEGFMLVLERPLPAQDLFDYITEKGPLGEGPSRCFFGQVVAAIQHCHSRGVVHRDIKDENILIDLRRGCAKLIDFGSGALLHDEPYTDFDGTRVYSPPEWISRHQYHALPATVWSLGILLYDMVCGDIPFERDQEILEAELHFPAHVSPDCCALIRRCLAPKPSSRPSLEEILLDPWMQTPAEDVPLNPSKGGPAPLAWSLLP

SMILES | inhibition at 1 µM [1] [%] | inhibition at 10 µM [1] [%] | inhibition at 1 µM [2] [%] | inhibition at 10 µM [2] [%] | inhibition at 1 µM [3] [%] | inhibition at 10 µM [3] [%] | inhibition at 1 µM [4] [%] | inhibition at 10 µM [4] [%] | inhibition at 1 µM [5] [%] | inhibition at 10 µM [5] [%] | inhibition at 1 µM [6] [%] | inhibition at 10 µM [6] [%] | inhibition at 1 µM [7] [%] | inhibition at 10 µM [7] [%] | inhibition at 1 µM [8] [%] | inhibition at 10 µM [8] [%] | inhibition at 1 µM [9] [%] | inhibition at 10 µM [9] [%] | inhibition at 1 µM [10] [%] | inhibition at 10 µM [10] [%] | other results
COc1ccc2c(c1OC)c(=O)n1c3ccc(O)cc3c3ccnc2c31 [MW01, 5-Hydroxy-10,11-dimethoxy-9H-benzo[c]indolo[3,2,1-ij][1,5]naphthyridin-9-one] | 9 | 18 | 5 | 14 | 6 | 5 | 42 | 62 | 1 | 11 | -10 | -12 | 13 | 11 | 10 | 5 | 0 | 7 | 10 | 15 | inhibition at 1 µM [11]: 6%; inhibition at 10 µM [11]: 13%; inhibition at 1 µM [12]: 1%; inhibition at 10 µM [12]: 7%; inhibition at 1 µM [13]: 12%; inhibition at 10 µM [13]: 19%; inhibition at 1 µM [14]: 19%; inhibition at 10 µM [14]: 15%; inhibition at 1 µM [15]: 5%; inhibition at 10 µM [15]: 12%
COc1ccc2cc3c(N)nn(C(=O)c4cccc(N(C)C)c4)c3nc2c1 [MW05, (3-Amino-7-methoxypyrazolo[3,4-b]quinolin-1-yl)-[3-(dimethylamino)phenyl]methanone] | 9 | 5 | 4 | -5 | -1 | -7 | 12 | 8 | 8 | -7 | -16 | -37 | 8 | 9 | 3 | 5 | 3 | -5 | 26 | 15 | inhibition at 1 µM [11]: -1%; inhibition at 10 µM [11]: -3%; inhibition at 1 µM [12]: -3%; inhibition at 10 µM [12]: -9%; inhibition at 1 µM [13]: 10%; inhibition at 10 µM [13]: 3%; inhibition at 1 µM [14]: 12%; inhibition at 10 µM [14]: 7%; inhibition at 1 µM [15]: 4%; inhibition at 10 µM [15]: -2%
